Experimental data published in paper PMC12693135, “Ocular Toxicity and Mechanistic Investigation for Berberine and Its Metabolite Berberrubine on Zebrafish” (Molecules, 2025).

Assays:
[1] = system: wild-type AB strain zebrafish; assay: Determination of ATP and ROS levels in zebrafish larvae; format: in vivo, zebrafish (Danio rerio); details: BBR 25 or 50 μM, M1 100 or 200 μM, 5 dpf; for ROS levels: relative to control
Experimental: Wild-type AB strain zebrafish (6 hpf) were treated with BBR (25 or 50 μM), M1 (100 or 200 μM), or 0.05% DMSO (control) until 5 dpf, with 30 larvae per treatment and three biological replicates (total 90 larvae per group). Subsequently, 3 larvae were pooled per sample (10 samples per group) and the entire zebrafish was transferred directly into a 96-well plate for fluorescence detection. Cellular ATP content was determined using the CellTiter-Glo® Luminescent Cell Viability Assay Kit (Promega, Madison, WI, USA), which relies on a bioluminescent principle (luciferase-luciferin reaction). Cellular ROS levels were measured using CM-H2DCFDA kits (Invitrogen, Carlsbad, CA, USA), based on the oxidation of non-fluorescent CM-H2DCFDA to fluorescent DCF by ROS. Reagents were prepared and reactions were performed according to the manufacturers’ instructions, with luminescence detected using a Spark multifunctional microplate reader (Tecan, Grödig, Austria).

[2] = system: wild-type AB strain zebrafish ocular cells; assay: Fluorescence microscopy for ocular cell apoptosis (acridine orange); format: in vivo, zebrafish (Danio rerio); details: for fluorescence intensity of apoptotic ocular cells (ratio to eye area): control 0.19
Experimental: To investigate the underlying mechanism of ocular toxicity, we evaluated the proapoptotic effects of BBR and M1 on wild-type AB strain zebrafish ocular cells. Zebrafish embryos at 6 hpf were water-soluble administration with BBR (25 or 50 μM) or M1 (100 or 200 μM), and the fluorescence intensity of apoptotic ocular cells was measured at 5 dpf using confocal fluorescence microscopy (Figure 4A). […] Specifically, the fluorescence intensity (a marker of apoptotic cell abundance) was increased from 0.19 to 0.28 and 0.32 upon the treatments of 25 μM BBR and 50 μM BBR, respectively.
A total of 30 wild-type AB strain zebrafish at 6 hpf were treated with BBR at 25 or 50 μM, M1 at 100 or 200 μM, or 0.05% DMSO (control), respectively, […], with 30 larvae per treatment and three biological replicates (total 90 larvae per group). The zebrafish larvae were then stained with acridine orange. After staining, 10 larvae were randomly selected from each experimental group and imaged using a motorized-focus continuous-zoom fluorescence microscope AZ100 (Nikon, Shinagawa-ku, Japan) with the magnification of 10–40× and exposure time of 200–500 ms. The fluorescence intensity of ocular apoptotic cells and mitochondria in zebrafish larvae was measured and analyzed using NIS-Elements 6.10 (Nikon Imaging Software, Nikon, Japan).

[3] = system: zebrafish larvae eye; assay: Zebrafish eye length and area experiment; format: in vivo, zebrafish (Danio rerio); details: zebrafish larvae at 5 dpf vs 0.05% DMSO control; BBR 20-200 µM, M1 20-625 µM
Experimental: Half of the epiboly embryos (6 hpf under standard conditions) were exposed to solutions (2 mL) of BBR at the concentrations of 20, 50, 100, and 200 µM or M1 at the concentrations of 20, 50, 100, 200, 400, and 625 µM and cultured under standard conditions, taking 0.05% DMSO in saline as the control. The experiment was performed three times using 30 embryos per concentration (n = 90 per group in total). At 5 dpf, embryos were washed 3× with normal medium, transferred to fresh medium, and photographed by E3ISPM20000KPA digital camera (ToupTek, Hangzhou, China), with the magnification of 10–40× and exposure time of 200–500 ms. Then the eye length and area were measured and analyzed using Image J V2.1.X (NIH, Bethesda, MD, USA). Data (eye length/area) were expressed as mean ± SD, compared with the control group, and plotted.

[4] = system: wild-type AB strain zebrafish larvae; assay: Zebrafish visual motor response (locomotor behavior, dark/light); format: in vivo, zebrafish (Danio rerio); details: for swimming pattern (trajectories) upon light stimulation: first 30 s of light stimulation, compared to controls
Experimental: Wild-type larvae (6 hpf, 30 per group) were incubated with BBR at the concentrations of 20, 50, 100, and 200 µM or M1 at the concentrations of 20, 50, 100, 200, 400, and 625 µM for 5 days. At 120 hpf, larvae were tested in a 96-well plate (1 larva/well, 12 per group). After 10 min acclimation, light-dark transition tests were performed (5 min dark to 5 min light, repeated 3 times), with recordings every 1 min for 40 min. The trajectory and 1 min movement distance were recorded by Behavioral Tracking System: Daniovision, Zebralab 3.3 (ViewPoint, Civrieux, France). Data were processed in Excel (Microsoft, Redmond, WA, USA). Metrics included 1 min total distance, movement time, and average speed. Averages of 12 larvae per group were used for bar graphs; comparisons with the control group were analyzed via t-test. The experiment was conducted three times in parallel.

[5] = Zebrafish embryonic developmental toxicity (mortality, LC50); parameters: species or system zebrafish (Danio rerio); details: wild-type AB, in vivo, exposure from 6 hpf, mortality at 5 dpf, read-out: LC50 (half-lethal concentration)
Experimental: First, the half-lethal concentration (LC50) values of berberine (BBR) and berberrubine (M1) in zebrafish were calculated. Wild-type AB strain zebrafish embryos staged at 6 h post-fertilization (hpf), corresponding to the 50% epiboly stage, were exposed to BBR or M1 at different concentrations. Mortality was recorded via stereomicroscopy at 5 days post-fertilization (5 dpf).
Embryos at 6 hpf (50% epiboly stage) were grouped and exposed to incubation solutions of berberine (BBR) at concentrations of 20, 50, 100, 200, and 400 µM, or M1 at concentrations of 20, 50, 100, 200, 400, and 625 µM, until 5 dpf. The control group was treated with 0.05% DMSO in saline. All experiments were performed in three biological replicates; unless otherwise specified, each replicate included 30 larvae per treatment, resulting in a total of 90 larvae per treatment.
Wild-typed AB strain zebrafish embryos at the 6 h post-fertilization stage (6 hpf) were grouped (30 fishes per group), and BBR at the concentrations of 20, 50, 100 and 200 µM or M1 at the concentrations of 20, 50, 100, 200, 400 and 625 µM were administered by microinjection, taking 0.05% DMSO in saline as the control. The mortality was recorded everyday by SZX2 stereomicroscopy (Olympus, Hachioji-shi, Japan) until 5 dpf. Dead embryos were recorded and discarded every 24 h. […]

[6] = system: mitochondrial complex I (NADH dehydrogenase); assay: Mitochondrial complex I activity assay in treated zebrafish larvae; format: in vivo, zebrafish (Danio rerio); details: BBR 25 or 50 μM, M1 100 or 200 μM, 5 dpf
Experimental: Wild-type AB strain zebrafish (6 hpf) were treated with BBR (25 or 50 μM), M1 (100 or 200 μM), or 0.05% DMSO (control) until 5 dpf, with 9 larvae per treatment and three biological replicates ([…]). Three zebrafish larvae were harvested per group (3 samples per group) and homogenized on ice following the protocol of the Mitochondrial Respiratory Chain Complex I Activity Assay Kit (Solabor, Beijing, China). Briefly, cell homogenates were centrifuged at 600× g for 5 min at 4 °C, and the supernatants were transferred to new microcentrifuge tubes. The samples were then centrifuged again at 11,000× g for 10 min at 4 °C; the precipitates (containing mitochondria) were used for the complex I activity assay. These precipitates were subjected to ultrasonication in the appropriate reaction buffer, and reactions were set up according to the protocol. After mixing, the OD340 values at time 0 (OD1) and at 2 min (OD2) were recorded using a Synergy H1 multifunctional microplate reader (Biotek, Winooski, VT, USA). The ΔOD value was calculated by subtracting OD2 from OD1. Mitochondrial complex I activity was calculated according to the formula provided in the protocol and expressed as units per mg of sample protein.

Compound	intracellular ATP levels [1]	ROS levels [1]	fluorescence intensity of apoptotic ocular cells (ratio to eye area) ([2]; 25 μM)	fluorescence intensity of apoptotic ocular cells (ratio to eye area) ([2]; 50 μM)	eye length and eye area [3]	average swimming speed, dark conditions ([4]; dark, 200 μM)	swimming distance and duration, dark conditions ([4]; dark, concentrations above 100 μM)	swimming pattern (trajectories) upon light stimulation [4]	locomotor metrics (distance, time, speed) upon light stimulation ([4]; light stimulation, 200 μM)	LC50 [5] [µM]	mitochondrial complex I activity [6]	apoptosis in ocular cells ([2]; 200 μM compared with 100 μM)	average swimming distance ([4]; 625 μM)	swimming duration ([4]; concentrations above 200 μM)	locomotion in the dark ([4]; dark, 20-625 µM)
COc1ccc2cc3[n+](cc2c1OC)CCc1cc2c(cc1-3)OCO2 [BBR, berberine]	significantly reduced	marked and dose-dependent increase	0.28	0.32	significantly and dose-dependently reduced	decreased average speed	significantly reduced	irregular and disorganized swimming patterns	significant reductions in all three locomotor metrics	167	dose-dependently suppressed				
COc1ccc2cc3[n+](cc2c1O)CCc1cc2c(cc1-3)OCO2 [M1, berberrubine]	significantly reduced	marked and dose-dependent increase			significantly and dose-dependently reduced			irregular and disorganized swimming patterns		558	marked, dose-dependent decrease	significant increase in apoptosis	reduced average swimming distance	decreased swimming duration	did not affect locomotion in the dark
